Experimental data taken from the NIST ThermoML archive (doi:10.1021/acs.jced.8b01204).
± gives the expanded uncertainty stated by the source.

Legend:
[1] = xn = mol fraction of the nth substance listed; conditions: 101 kPa, Liquid, x2 = 0; for speed of sound: Single path-length method; for mass density: Vibrating tube method
[2] = 101 kPa, Liquid; for speed of sound: Single path-length method; for mass density: Vibrating tube method

Row | Compound | speed of sound ([1]; 293.15 K) [m/s] | mass density ([1]; 293.15 K) [kg/m3] | speed of sound ([1]; 298.15 K) [m/s] | mass density ([1]; 298.15 K) [kg/m3] | speed of sound ([1]; 303.15 K) [m/s] | mass density ([1]; 303.15 K) [kg/m3] | speed of sound ([1]; 308.15 K) [m/s] | mass density ([1]; 308.15 K) [kg/m3] | speed of sound ([1]; 313.15 K) [m/s] | mass density ([1]; 313.15 K) [kg/m3] | speed of sound ([2]; 293.15 K) [m/s] | mass density ([2]; 293.15 K) [kg/m3] | speed of sound ([2]; 298.15 K) [m/s] | mass density ([2]; 298.15 K) [kg/m3] | speed of sound ([2]; 303.15 K) [m/s] | mass density ([2]; 303.15 K) [kg/m3] | speed of sound ([2]; 308.15 K) [m/s] | mass density ([2]; 308.15 K) [kg/m3] | speed of sound ([2]; 313.15 K) [m/s] | mass density ([2]; 313.15 K) [kg/m3]
1 | CCC(=O)O [propanoic acid] + C[N+]1(CC2CO2)CCCC1=O.O=C([O-])c1ccccc1O | 1166.3 ± 6.1 | 993.8 ± 3 | 1148.1 ± 6.1 | 988.4 ± 3 | 1129.7 ± 6.1 | 983 ± 3 | 1111.3 ± 6.1 | 977.6 ± 3 | 1092.8 ± 6.1 | 972.2 ± 3 |  |  |  |  |  |  |  |  |  | 
2 | C[N+]1(CC2CO2)CCCC1=O.O=C([O-])c1ccccc1O (stereo not given) [1-methyl-1-(oxiran-2-ylmethyl)-2-oxopyrrolidinium salicylate] |  |  |  |  |  |  |  |  |  |  | 1634.2 ± 6.3 | 1209.8 ± 3.2 | 1614.5 ± 6.3 | 1205.5 ± 3.2 | 1595.7 ± 6.3 | 1201.3 ± 3.2 | 1577.6 ± 6.3 | 1197.2 ± 3.2 | 1559.5 ± 6.3 | 1193 ± 3.2

The next lines start with the values.

Row | speed of sound ([1]; 293.15 K) [m/s] | mass density ([1]; 293.15 K) [kg/m3] | speed of sound ([1]; 298.15 K) [m/s] | mass density ([1]; 298.15 K) [kg/m3] | speed of sound ([1]; 303.15 K) [m/s] | mass density ([1]; 303.15 K) [kg/m3] | speed of sound ([1]; 308.15 K) [m/s] | mass density ([1]; 308.15 K) [kg/m3] | speed of sound ([1]; 313.15 K) [m/s] | mass density ([1]; 313.15 K) [kg/m3] | speed of sound ([2]; 293.15 K) [m/s] | mass density ([2]; 293.15 K) [kg/m3] | speed of sound ([2]; 298.15 K) [m/s] | mass density ([2]; 298.15 K) [kg/m3] | speed of sound ([2]; 303.15 K) [m/s] | mass density ([2]; 303.15 K) [kg/m3] | speed of sound ([2]; 308.15 K) [m/s] | mass density ([2]; 308.15 K) [kg/m3] | speed of sound ([2]; 313.15 K) [m/s] | mass density ([2]; 313.15 K) [kg/m3] | Compound
3 | 1159.3 ± 6.1 | 1052.5 ± 3 | 1142.8 ± 6.1 | 1046.9 ± 3 | 1126.3 ± 6.1 | 1041.4 ± 3 | 1109.6 ± 6.1 | 1035.8 ± 3 | 1094.8 ± 6.1 | 1030 ± 3 |  |  |  |  |  |  |  |  |  |  | CC(=O)O [acetic acid] + C[N+]1(CC2CO2)CCCC1=O.O=C([O-])c1ccccc1O
4 |  |  |  |  |  |  |  |  |  |  | 1159.3 ± 6.1 | 1052.5 ± 3 | 1142.8 ± 6.1 | 1046.9 ± 3 | 1126.3 ± 6.1 | 1041.4 ± 3 | 1109.6 ± 6.1 | 1035.8 ± 3 | 1094.8 ± 6.1 | 1030 ± 3 | CC(=O)O [acetic acid]
5 |  |  |  |  |  |  |  |  |  |  | 1166.3 ± 6.1 | 993.8 ± 3 | 1148.1 ± 6.1 | 988.4 ± 3 | 1129.7 ± 6.1 | 983 ± 3 | 1111.3 ± 6.1 | 977.6 ± 3 | 1092.8 ± 6.1 | 972.2 ± 3 | CCC(=O)O [propanoic acid]
